Patent publication US20240398828A1, “HETERO-ATOM CONTAINING COMPOUNDS AND USES THEREOF” (Kumquat Biosciences Inc., priority 2021, published 2024)

Columns and labels:
[1] = target: T1, PTPN2 (i.e., TC-PTP) (Homo sapiens, UniProt P17706); test: Phosphatase activity assay (DiFMUP substrate), PTPN2; type: biochemical; details: compounds binned ≤1 uM or >1 uM
T1 sequence (P17706 1-415): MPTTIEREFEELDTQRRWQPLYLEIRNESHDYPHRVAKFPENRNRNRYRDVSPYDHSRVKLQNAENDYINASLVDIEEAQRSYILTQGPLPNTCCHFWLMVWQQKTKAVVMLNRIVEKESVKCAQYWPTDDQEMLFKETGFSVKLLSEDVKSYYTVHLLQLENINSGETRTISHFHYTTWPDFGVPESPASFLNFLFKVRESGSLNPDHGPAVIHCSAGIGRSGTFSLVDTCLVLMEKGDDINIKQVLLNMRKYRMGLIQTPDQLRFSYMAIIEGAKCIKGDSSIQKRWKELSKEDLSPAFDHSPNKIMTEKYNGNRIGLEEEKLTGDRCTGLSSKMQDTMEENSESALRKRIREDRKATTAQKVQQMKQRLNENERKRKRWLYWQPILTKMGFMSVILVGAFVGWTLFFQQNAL
Summary of the method: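 First, serially diluted inhibitor is mixed about 2 minutes with enzyme in pH 7.5 HEPES/NaCl/EDTA/DTT/Tween-20 buffer. Next, DiFMUP is added at the enzyme's Km, approximately 45 μM for PTPN2. Finally, DiFMU appearance is read continuously at room temperature and rates are fitted for IC50.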

[2] = target: T2, PTPN1 (i.e., PTP1B) (Homo sapiens, UniProt P18031); test: Phosphatase activity assay (DiFMUP substrate), PTP1B; type: biochemical; details: compounds binned ≤1 uM or >1 uM
T2 sequence (P18031 1-435): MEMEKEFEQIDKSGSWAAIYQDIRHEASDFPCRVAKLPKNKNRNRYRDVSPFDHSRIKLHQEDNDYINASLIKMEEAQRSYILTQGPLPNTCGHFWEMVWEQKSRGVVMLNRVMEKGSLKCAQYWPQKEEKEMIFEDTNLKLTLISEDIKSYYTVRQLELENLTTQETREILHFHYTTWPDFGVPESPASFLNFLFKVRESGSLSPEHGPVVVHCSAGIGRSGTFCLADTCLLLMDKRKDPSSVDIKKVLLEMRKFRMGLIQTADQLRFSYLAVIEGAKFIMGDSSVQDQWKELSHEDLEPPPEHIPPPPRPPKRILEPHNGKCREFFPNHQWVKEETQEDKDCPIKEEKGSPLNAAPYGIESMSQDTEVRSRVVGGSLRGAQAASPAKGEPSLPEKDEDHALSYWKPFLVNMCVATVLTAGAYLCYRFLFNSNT
Summary of the method: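 RT, HEPES pH 7.5 buffer with DTT/Tween-20. 10-point inhibitor series premixed ~2 min with enzyme (PTPN2 0.025 ng/ul). Start with DiFMUP at enzyme Km (~45 μM for PTPN2). Read DiFMU ex360/em450 continuously 15–30 min; initial rate vs concentration, 4-parameter fit → IC50.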

| SMILES | IC50 [1] | IC50 [2] |
| --- | --- | --- |
| O=C1CN(c2c(O)ccc(-c3ccc4ncccc4c3)c2F)S(=O)(=O)N1 [Compound 150, 5-(2-fluoro-6-hydroxy-3-(quinolin-6-yl)phenyl)-1,2,5-thiadiazolidin-3-one 1,1-dioxide] | ≤ 1000 nM | ≤ 1000 nM |
| CN(C)c1cc(-c2ccc(O)c(N3CC(=O)NS3(=O)=O)c2F)[nH]n1 [Compound 300, 5-(3-(3-(dimethylamino)-1H-pyrazol-5-yl)-2-fluoro-6-hydroxyphenyl)-1,2,5-thiadiazolidin-3-one 1,1-dioxide] | ≤ 1000 nM | ≤ 1000 nM |
| CC#Cc1cc(-c2ccc(O)c(N3CC(=O)NS3(=O)=O)c2F)[nH]n1 [Compound 354, 5-(2-fluoro-6-hydroxy-3-(3-(prop-1-yn-1-yl)-1H-pyrazol-5-yl)phenyl)-1,2,5-thiadiazolidin-3-one 1,1-dioxide] | ≤ 1000 nM | ≤ 1000 nM |
| N=C(N)N1CCC=C(c2ccc(O)c(N3CC(=O)NS3(=O)=O)c2F)C1 [Compound 499, 5-(3-(1,1-dioxido-4-oxo-1,2,5-thiadiazolidin-2-yl)-2-fluoro-4-hydroxyphenyl)-3,6-dihydropyridine-1(2H)-carboximidamide] | ≤ 1000 nM | ≤ 1000 nM |
| O=C1CN(c2c(O)ccc(-c3cn(C4CCC(F)(F)CC4)cn3)c2F)S(=O)(=O)N1 [Compound 268, 5-(3-(1-(4,4-difluorocyclohexyl)-1H-imidazol-4-yl)-2-fluoro-6-hydroxyphenyl)-1,2,5-thiadiazolidin-3-one 1,1-dioxide] | ≤ 1000 nM | ≤ 1000 nM |
| CCn1nc(-c2ccc(O)c(N3CC(=O)NS3(=O)=O)c2F)cc1C1CC1 [Compound 331, 5-(3-(5-cyclopropyl-1-ethyl-1H-pyrazol-3-yl)-2-fluoro-6-hydroxyphenyl)-1,2,5-thiadiazolidin-3-one 1,1-dioxide] | ≤ 1000 nM | ≤ 1000 nM |
| O=C1CN(c2c(O)ccc(-c3cnn(-c4cccnc4)c3)c2F)S(=O)(=O)N1 [Compound 102, 5-(2-fluoro-6-hydroxy-3-(1-(pyridin-3-yl)-1H-pyrazol-4-yl)phenyl)-1,2,5-thiadiazolidin-3-one 1,1-dioxide] | ≤ 1000 nM | ≤ 1000 nM |
| O=C1CN(c2c(O)ccc(-c3cn(Cc4cccnc4)cn3)c2F)S(=O)(=O)N1 [Compound 457, 5-(2-fluoro-6-hydroxy-3-(1-(pyridin-3-ylmethyl)-1H-imidazol-4-yl)phenyl)-1,2,5-thiadiazolidin-3-one 1,1-dioxide] | ≤ 1000 nM | ≤ 1000 nM |
| Cc1n[nH]c(-c2ccc(O)c(N3CC(=O)NS3(=O)=O)c2F)c1C [Compound 375, 5-(3-(3,4-dimethyl-1H-pyrazol-5-yl)-2-fluoro-6-hydroxyphenyl)-1,2,5-thiadiazolidin-3-one 1,1-dioxide] | ≤ 1000 nM | ≤ 1000 nM |
| N#Cc1ccc(-n2cnc(-c3ccc(O)c(N4CC(=O)NS4(=O)=O)c3F)c2)cc1F [Compound 287, 4-(4-(3-(1,1-dioxido-4-oxo-1,2,5-thiadiazolidin-2-yl)-2-fluoro-4-hydroxyphenyl)-1H-imidazol-1-yl)-2-fluorobenzonitrile] | ≤ 1000 nM | ≤ 1000 nM |
| O=C1CN(c2c(O)ccc(C3=CCN(S(=O)(=O)CCC(F)(F)F)C3)c2F)S(=O)(=O)N1 [Compound 251, 5-(2-fluoro-6-hydroxy-3-(1-((3,3,3-trifluoropropyl)sulfonyl)-2,5-dihydro-1H-pyrrol-3-yl)phenyl)-1,2,5-thiadiazolidin-3-one 1,1-dioxide] | ≤ 1000 nM | ≤ 1000 nM |
| Cn1nc(-c2ccc(O)c(N3CC(=O)NS3(=O)=O)c2F)nc1C1CC1(F)F (stereo not shown) [Compound 540, 5-(3-(5-(2,2-difluorocyclopropyl)-1-methyl-1H-1,2,4-triazol-3-yl)-2-fluoro-6-hydroxyphenyl)-1,2,5-thiadiazolidin-3-one 1,1-dioxide] | ≤ 1000 nM | ≤ 1000 nM |
| O=C1CN(c2c(O)ccc(-c3cnn(C4CC5CCC(C4)N5C(=O)C4CC4)c3)c2F)S(=O)(=O)N1 (stereo not shown) [Compound 411, 5-(3-(1-(8-(cyclopropanecarbonyl)-8-azabicyclo[3.2.1]octan-3-yl)-1H-pyrazol-4-yl)-2-fluoro-6-hydroxyphenyl)-1,2,5-thiadiazolidin-3-one 1,1-dioxide] | ≤ 1000 nM | ≤ 1000 nM |
| O=C1CN(c2c(O)ccc(C3CCN(S(=O)(=O)C4CC4)C3)c2F)S(=O)(=O)N1 (stereo not shown) [Compound 359, 5-(3-(1-(cyclopropylsulfonyl)pyrrolidin-3-yl)-2-fluoro-6-hydroxyphenyl)-1,2,5-thiadiazolidin-3-one 1,1-dioxide] | ≤ 1000 nM | ≤ 1000 nM |
| Nc1nc2ccc(-c3ccc(O)c(N4CC(=O)NS4(=O)=O)c3F)cc2s1 [Compound 135, 5-(3-(2-aminobenzo[d]thiazol-6-yl)-2-fluoro-6-hydroxyphenyl)-1,2,5-thiadiazolidin-3-one 1,1-dioxide] | ≤ 1000 nM | ≤ 1000 nM |
| CC(C)CNC1(c2cc(-c3ccc(O)c(N4CC(=O)NS4(=O)=O)c3F)nn2C)CC1 [Compound 269, 5-(2-fluoro-6-hydroxy-3-(5-(1-(isobutylamino)cyclopropyl)-1-methyl-1H-pyrazol-3-yl)phenyl)-1,2,5-thiadiazolidin-3-one 1,1-dioxide] | ≤ 1000 nM | ≤ 1000 nM |
| O=C1CN(c2c(O)ccc(-c3cn(C4CCC(F)CC4)cn3)c2F)S(=O)(=O)N1 (stereo not shown) [Compound 306, 5-(2-fluoro-3-(1-(4-fluorocyclohexyl)-1H-imidazol-4-yl)-6-hydroxyphenyl)-1,2,5-thiadiazolidin-3-one 1,1-dioxide] | ≤ 1000 nM | ≤ 1000 nM |
| O=C1CN(c2c(O)ccc(-c3cnc(NS(=O)(=O)C4CC4)nc3)c2F)S(=O)(=O)N1 [Compound 234, N-(5-(3-(1,1-dioxido-4-oxo-1,2,5-thiadiazolidin-2-yl)-2-fluoro-4-hydroxyphenyl)pyrimidin-2-yl)cyclopropanesulfonamide] | ≤ 1000 nM | ≤ 1000 nM |
| Cn1cc(-c2ccc(O)c(N3CC(=O)NS3(=O)=O)c2Cl)cn1 [Compound 311, 5-(2-chloro-6-hydroxy-3-(1-methyl-1H-pyrazol-4-yl)phenyl)-1,2,5-thiadiazolidin-3-one 1,1-dioxide] | ≤ 1000 nM | ≤ 1000 nM |
| O=C1CN(c2c(O)ccc(-c3cnn(Cc4ccccc4)c3)c2F)S(=O)(=O)N1 [Compound 212, 5-(3-(1-benzyl-1H-pyrazol-4-yl)-2-fluoro-6-hydroxyphenyl)-1,2,5-thiadiazolidin-3-one 1,1-dioxide] | ≤ 1000 nM | ≤ 1000 nM |
| CC(C)CCn1cc(-c2ccc(O)c(N3CC(=O)NS3(=O)=O)n2)cn1 [Compound 134, 5-(3-hydroxy-6-(1-isopentyl-1H-pyrazol-4-yl)pyridin-2-yl)-1,2,5-thiadiazolidin-3-one 1,1-dioxide] | > 1000 nM | > 1000 nM |
| O=C1C=C(c2c(O)ccc(-c3cn(CC4CCCCC4)cn3)c2F)S(=O)(=O)N1 [Compound 277, 5-(3-(1-(cyclohexylmethyl)-1H-imidazol-4-yl)-2-fluoro-6-hydroxyphenyl)isothiazol-3(2H)-one 1,1-dioxide] | ≤ 1000 nM | ≤ 1000 nM |
| N#Cc1ccc(Cn2cc(-c3ccc(O)c(N4CC(=O)NS4(=O)=O)c3F)cn2)cc1 [Compound 224, 4-((4-(3-(1,1-dioxido-4-oxo-1,2,5-thiadiazolidin-2-yl)-2-fluoro-4-hydroxyphenyl)-1H-pyrazol-1-yl)methyl)benzonitrile] | ≤ 1000 nM | ≤ 1000 nM |
| O=C1CN(c2c(O)ccc(C3=CCN(S(=O)(=O)C4CC4)C3)c2F)S(=O)(=O)N1 [Compound 238, 5-(3-(1-(cyclopropylsulfonyl)-2,5-dihydro-1H-pyrrol-3-yl)-2-fluoro-6-hydroxyphenyl)-1,2,5-thiadiazolidin-3-one 1,1-dioxide] | ≤ 1000 nM | ≤ 1000 nM |
| Cc1cnn(-c2ccc(O)c(N3CC(=O)NS3(=O)=O)c2F)c1 [Compound 386, 5-(2-fluoro-6-hydroxy-3-(4-methyl-1H-pyrazol-1-yl)phenyl)-1,2,5-thiadiazolidin-3-one 1,1-dioxide] | ≤ 1000 nM | ≤ 1000 nM |
| O=C1CN(c2c(O)ccc(-c3ccc(OCC4CC4)nc3)c2F)S(=O)(=O)N1 [Compound 166, 5-(3-(6-(cyclopropylmethoxy)pyridin-3-yl)-2-fluoro-6-hydroxyphenyl)-1,2,5-thiadiazolidin-3-one 1,1-dioxide] | ≤ 1000 nM | ≤ 1000 nM |
